Results on three compounds are retold here after patent US9328360B2, “Conversion of glycerol to 1,3-propanediol under haloalkaline conditions” (The Curators of the University of Missouri, priority 2013, dated 2016).

What all share (format): cell-based, Halanaerobium hydrogeniformans
Test [1] relates to H. hydrogeniformans. The test is described as follows: Tolerance of H. hydrogeniformans to 1,3-propanediol (growth by turbidity). Particulars: for Growth: 30 mM glycerol. As for the experimental part:
(§1) The tolerance of H. hydrogeniformans to increasing concentrations of 1,3-propanediol was examined. Anaerobic cultures were prepared in 160 mL serum bottles. The medium was prepared by boiling to degas under a N2 blanket. As the medium cooled, reductant stock mix was added to the media that contained 0.75 g Na2S and 0.6 g cysteine per liter. Once the media was cooled, the flasks were transferred into a Coy anaerobic glove bag where the 50 mL of media was dispensed into 160 mL serum bottles filled and autoclaved (121° C., 20 min). After autoclaving, the headspace gas was exchanged for 80% N2/20% CO2 mixture. The bottles then were inoculated with a 10% inoculum from previous stock cultures and amended with 30 mM glycerol. Sterilized 1,3-propanediol was added to the serum bottles to achieve 10, 30, 60, 120, 380, and 750 mM. Growth was examined by turbidity readings taken at […].

For test [2], the system named is H. hydrogeniformans. The test is described as follows: Requirement of B12: 1,3-propanediol production from 30 mM glycerol over a vitamin B12 gradient (HPLC). The conditions noted are these: for Percent mole/mole conversion of glycerol to 1,3-propanediol / 1,3-propanediol produced: 30 mM glycerol. As for the experimental part:
Anaerobic cultures were prepared in 160 mL serum bottles. The medium was prepared by boiling to degas under a N2 blanket. As the medium cooled, reductant stock mix was added to the media that contained 0.75 g Na2S and 0.6 g cysteine per liter. Once the media was cooled, the flasks were transferred into a Coy anaerobic glove bag where the 50 mL of media was dispensed into 160 mL serum bottles filled and autoclaved (121° C., 20 min). After autoclaving, the headspace gas was exchanged for 80% N2/20% CO2 mixture. The bottles then were inoculated with a 10% inoculum from previous stock cultures. 30 mM glycerol was added. Vitamin B12 supplementation from anaerobic, filter-sterilized stocks were added right before inoculation at 0 μg/L, 25 μg/L, 50 μg/L, 75 μg/L, and 100 μg/L.
Samples were taken every 24 hours. 5 mL syringes were degassed with N2/CO2 mix, and 1 mL of culture sample was removed for each of the sample periods. The sample was placed in a 1.5 mL Eppendorf tube, and centrifuged for 5 min at 13,000×g. The supernatant was decanted into another 1.5 mL Eppendorf tube, and frozen for HPLC analysis.
For HPLC analysis, filter sterilized samples ([…] PTFE filters) were injected onto a 300×7.8 mm Aminex HPX-87H column (BioRad, Hercules, Calif.) maintained at 50° C. The mobile phase was 2.5 mM H2SO4 maintained at a constant flow rate of 0.6 ml/min and at approximately 2.2 MPa. Detection was done with both a UV 231 (at 210 nm) and refractive index monitor.

The test system of test [3] is H. hydrogeniformans. The test is described as follows: Tolerance of H. hydrogeniformans to glycerol (growth by turbidity). The conditions noted are these: 7% NaCl, pH 11. How it is done: as §1, with “to” for “to increasing”, “glycerol” for “1,3-propanediol”, “cultures.” for “cultures and amended with 30 mM glycerol.”, “7.5, 15,” for “10,”, “240, 480, 960,” for “380,”, “1920” for “750”

Take `OCCCO` [1,3-propanediol]: the Growth entry in test [1] (1,3-propanediol 10 mM), in test [1] (1,3-propanediol 30 mM), in test [1] (1,3-propanediol 60 mM), in test [1] (1,3-propanediol 120 mM) and in test [1] (1,3-propanediol 380 mM) was “capable of growth” in each case. Besides, the “1,3-propanediol concentration at which growth is possible” value in test [1] (7% NaCl, pH 11) is given as 380 mM. In addition, the “1,3-propanediol concentration tolerated” value in test [1] (in addition to 7% (w/v) and pH 11) is “at least 0.38 M”.

Take `OCC(O)CO` [Glycerol, glycerol]: in test [2] (B12 amendment 0 μg/L), the “Percent mole/mole conversion of glycerol to 1,3-propanediol” value is 31.5 % mol 1,3-propandiol/mol glycerol. In addition, in test [2] (absence of B12), the conversion rate worked out at 31%. For the same compound, in test [2] (no vitamin B12 provided), the “1,3-propanediol produced” value is “approximately 8.5 mM”. In addition, the Growth result in test [3] (Glycerol 7.5 mM), in test [3] (Glycerol 15 mM), in test [3] (Glycerol 30 mM), in test [3] (Glycerol 60 mM), in test [3] (Glycerol 120 mM) and in test [3] (Glycerol 240 mM) was “capable of growth” throughout. Besides, the Growth result in test [3] (Glycerol 480 mM), in test [3] (Glycerol 960 mM) and in test [3] (Glycerol 1920 mM) was “capable of growth” each time.

Consider vitamin B12, for which the “Percent mole/mole conversion of glycerol to 1,3-propanediol” value was 59.1 % mol 1,3-propandiol/mol glycerol in test [2] (B12 amendment 25 μg/L), 60.3 % mol 1,3-propandiol/mol glycerol in test [2] (B12 amendment 50 μg/L), 60.1 % mol 1,3-propandiol/mol glycerol in test [2] (B12 amendment 75 μg/L) and 60.2 % mol 1,3-propandiol/mol glycerol in test [2] (B12 amendment 100 μg/L). Further, the conversion rate entry in test [2] (B12 supplementation >25 μg/L) is recorded as “approximately 60%”. In addition, the “1,3-propanediol produced” value in test [2] (culture amended with 25, 50, 75, or 100 μg/L vitamin B12) was “Approximately 16.5 mM”.
